The assay addresses PIK3CB;PIK3CG;PIK3CD;PIK3CA (human) (UniProt P48736). Briefly: Inhibition of PIK3CA/PIK3CB/PIK3CD/PIK3CG Kinase Activity.
As to `COc1ccc(CC2CCN(C)CC2)c(Nc2nc3ccccc3nc2NS(=O)(=O)c2cccnc2)c1`, the IC50 was 45 nM.
As to `COCCc1ccc(OC)cc1Nc1nc2ccccc2nc1NS(=O)(=O)C1CCN(C(C)=O)CC1`, the half-inhibitory concentration (IC50) came to 300 nM.
`COc1ccc(CC2CCC(O)CC2)c(Nc2nc3ccccc3nc2NS(=O)(=O)c2cn(C)cn2)c1` (stereo unspecified) showed an IC50 of 18 nM.
In turn, `COc1cc(Nc2nc3ccccc3nc2NS(=O)(=O)c2cn(C)cn2)cc(C(=O)N(C)C)c1` yielded an IC50 of 760 nM.
For `COc1ccc(CC2CCOCC2)c(Nc2nc3ccccc3nc2NS(=O)(=O)c2ccc(CN(C)C)cc2)c1` the value was 30 nM; for `COc1cc(CN(C)C)cc(Nc2nc3ccccc3nc2NS(=O)(=O)c2cn(C)cn2)c1`, 1100 nM; for `COc1ccc(CN2CCOCC2)c(Nc2nc3ccccc3nc2NS(=O)(=O)c2cccnc2)c1`, 72 nM.
`COc1ccc(CN2CCN(C)CC2)c(Nc2nc3ccccc3nc2NS(=O)(=O)c2ccc(F)cc2)c1` showed an IC50 of 110 nM.
`COc1cc(Nc2nc3ccccc3nc2NS(=O)(=O)CCCS(C)(=O)=O)cc(C(=O)NCCO)c1` had an IC50 of 350 nM.
`COc1ccc(CCCO)c(Nc2nc3ccccc3nc2NS(=O)(=O)c2cn(C)c(CO)n2)c1`: the IC50 was 84 nM.
Compound `COc1ccc(CCS(C)(=O)=O)c(Nc2nc3ccccc3nc2NS(C)(=O)=O)c1` returned an IC50 of 200 nM.
As for `COc1ccc(CCS(C)(=O)=O)c(Nc2nc3ccccc3nc2NS(=O)(=O)c2cn(C)c(CN(C)C)n2)c1`, the IC50 worked out at 87 nM.
Take `COc1ccc(C(=O)O)c(Nc2nc3ccccc3nc2NS(=O)(=O)c2cccnc2)c1`: the IC50 is 4680 nM.
In the case of `COc1ccc(CCS(C)(=O)=O)c(Nc2nc3ccccc3nc2NS(=O)(=O)c2ccccc2)c1`, the IC50 was 42 nM.
Compound `COCCc1ccc(OC)cc1Nc1nc2ccccc2nc1NS(=O)(=O)c1cn(C)c(CS(C)(=O)=O)n1` came in with a half-inhibitory concentration (IC50) of 200 nM.
To `COc1cc(Nc2nc3ccccc3nc2NS(=O)(=O)c2cccnc2)cc(C(=O)N2CCOCC2)c1` belongs 3100 nM; to `COc1ccc(CCCO)c(Nc2nc3ccccc3nc2NS(=O)(=O)c2cccc(NC(=O)CN(C)C)c2)c1`, 30 nM.
`COc1ccc(CCO)c(Nc2nc3ccccc3nc2NS(=O)(=O)c2ccc(NC(=O)CN(C)C)cc2)c1`: the IC50 is 27 nM.
Compound `COc1ccc(CCCO)c(Nc2nc3ccccc3nc2NS(=O)(=O)CCCS(C)(=O)=O)c1` displayed an IC50 of 120 nM.
Regarding `COc1ccc(CC2CCSCC2)c(Nc2nc3ccccc3nc2NS(=O)(=O)c2ccc(CN(C)C)cc2)c1`, the 50% inhibitory concentration (IC50) was 35 nM.
For the compound `COc1ccc(CCO)c(Nc2nc3ccccc3nc2NS(=O)(=O)c2ccc(CCCO)cc2)c1`, the IC50 was found to be 36 nM.

The record behind these values is the Kinase Knowledgebase extract (Sharma et al. 2016).
